According to patent publication US9758485B2, “Compounds for controlling arthropods” (priority 2013, dated 2017):
Where two headings read alike, the source gives them in different places.

Columns and labels:
Boophilus microplus = Boophilus microplus - injection test; type: in vivo; settings: application rate 20 μg/animal; injected into engorged adult female ticks; laying of fertile eggs, after 7 days
Protocol: Boophilus microplus—Injection Test
(§1) Solvent: dimethyl sulphoxide
To produce an appropriate active ingredient formulation, 10 mg of active ingredient are mixed with 0.5 ml of solvent and the concentrate is diluted with solvent to the desired concentration.
1 μl of the active ingredient solution is injected into the abdomen of 5 engorged adult female cattle ticks (Boophilus microplus). The animals are transferred into dishes and kept in a climate-controlled room.
Efficacy is assessed after 7 days by laying of fertile eggs. Eggs which are not visibly fertile are stored in a climate-controlled cabinet until the larvae hatch after about 42 days. An efficacy of 100% means that none of the ticks has laid any fertile eggs; 0% means that all the eggs are fertile.

[1] = logP determination by HPLC on a reversed-phase column (C18), EEC Directive 79/831 Annex V.A8; type: physicochemical; settings: for logP^a): HPLC-MS method a), Table I-T3
Lucilia cuprina = Lucilia cuprina test; type: in vivo; settings: application rate 100 ppm, L1 larvae in minced horsemeat, kill after 2 days
Protocol: as §1
To produce an appropriate active ingredient formulation, 10 mg of active ingredient are mixed with 0.5 ml of dimethyl sulphoxide, and the concentrate is diluted with water to the desired concentration.
About 20 L1 larvae of the Australian sheep blowfly (Lucilia cuprina) are transferred into a test vessel containing minced horsemeat and the active ingredient preparation of the desired concentration.
After 2 days, the kill in % is determined. 100% means that all the larvae have been killed; 0% means that none of the larvae have been killed.

Ctenocephalides felis = Ctenocephalides felis - oral test; type: in vivo; settings: application rate 100 ppm in citrated cattle blood; adult fleas; kill after 2 days
Protocol: Ctenocephalides felis—Oral Test
as §1
For the purpose of producing an appropriate active ingredient formulation, 10 mg of active ingredient are mixed with 0.5 ml of dimethyl sulphoxide. Dilution with citrated cattle blood gives the desired concentration.
About 20 unfed adult cat fleas (Ctenocephalides felis) are placed into a chamber which is closed at the top and bottom with gauze. A metal cylinder whose bottom end is closed with parafilm is placed onto the chamber. The cylinder contains the blood/active ingredient preparation, which can be imbibed by the fleas through the parafilm membrane.
After 2 days, the kill in % is determined. 100% means that all of the fleas have been killed; 0% means that none of the fleas have been killed.

[2] = HPLC-MS, reversed-phase column (C18)
[3] = HPLC, reversed-phase C18, acetonitrile/water with formic acid, 55° C.

SMILES	efficacy (Boophilus microplus)	logP^a) [1]	efficacy (Lucilia cuprina)	efficacy (Ctenocephalides felis)	other results
Cc1cc(C(F)(C(F)(F)F)C(F)(F)F)cc(C)c1-c1ccn(-c2ccc(Cl)c(C(=O)NC3(C#N)CC3)c2)n1 [I-T2-2]	100%				
Cc1cc(C(F)(C(F)(F)F)C(F)(F)F)cc(C)c1-n1cc(-c2ccc(Cl)c(C(=O)NCC(=O)NCC(F)(F)F)c2)cn1 [I-T3-6]	100%	4.1	100%		
Cc1cc(C(F)(C(F)(F)F)C(F)(F)F)cc(C)c1-n1cc(-c2cccc(C(=O)NC3(C#N)CC3)c2F)cn1 [I-T3-10]	100%	4.2	100%	100%	
Cc1cc(C(F)(C(F)(F)F)C(F)(F)F)cc(C)c1-n1cc(-c2cc(C(=O)NC3CC3)c(F)cc2Cl)cn1 [I-T3-11]	100%	4.9		95%	
Cc1cc(C(F)(C(F)(F)F)C(F)(F)F)cc(C)c1-n1cc(-c2cc(C(=O)NC3(C#N)CC3)c(F)cc2Cl)cn1 [I-T3-12]	100%	4.7	80%	100%	
Cc1cc(C(F)(C(F)(F)F)C(F)(F)F)cc(C)c1-n1cc(-c2cc(C(=O)NC3CC3)ccc2F)cn1 [I-T3-13]	100%	4.5		80%	
Cc1cc(C(F)(C(F)(F)F)C(F)(F)F)cc(C)c1-n1cc(-c2cc(C(=O)NC3CC3)cc(C(F)(F)F)c2)cn1 [I-T3-15]	100%	4.9	100%	90%	
Cc1ccc(C(=O)NC2CC2)cc1-c1cnn(-c2c(C)cc(C(F)(C(F)(F)F)C(F)(F)F)cc2C)c1 [I-T3-16]		4.4		80%	
Cc1cc(C(F)(C(F)(F)F)C(F)(F)F)cc(C)c1-n1cc(-c2cc(C(=O)NC3(C#N)CC3)cc(C(F)(F)F)c2)cn1 [I-T3-18]	100%	4.7	100%	100%	
Cc1cc(C(F)(C(F)(F)F)C(F)(F)F)cc(C)c1-n1cc(-c2cc(C(=O)NC3(C#N)CC3)ccc2F)cn1 [I-T3-19]	100%	4.3		95%	
O=C(NCC(F)(F)F)c1cc(-c2cnn(-c3ccc(C(F)(C(F)(F)F)C(F)(F)F)cc3Cl)c2)ccc1Cl [I-T3-32]	100%	4.7	100%	100%	
O=C(NCCC(F)(F)F)c1cc(-c2cnn(-c3ccc(C(F)(C(F)(F)F)C(F)(F)F)cc3Cl)c2)ccc1Cl [I-T3-33]	100%	4.7	100%	100%	
O=C(NCC(F)(F)F)c1cc(-c2cnn(-c3ccc(C(F)(C(F)(F)F)C(F)(F)F)cc3OC(F)(F)F)c2)ccc1Cl [I-T3-36]	100%	5.0	100%	80%	
O=C(NC1CSC1)c1cc(-c2cnn(-c3ccc(C(F)(C(F)(F)F)C(F)(F)F)cc3OC(F)(F)F)c2)ccc1Cl [I-T3-37]	100%	4.9	100%	90%	
CCc1cc(C(F)(C(F)(F)F)C(F)(F)F)ccc1-n1cc(-c2ccc(Cl)c(C(=O)NCC(F)(F)F)c2)cn1 [I-T3-40]	100%	4.9	100%	100%	
CCc1cc(C(F)(C(F)(F)F)C(F)(F)F)ccc1-n1cc(-c2ccc(Cl)c(C(=O)NC3CSC3)c2)cn1 [I-T3-41]	100%	4.9	90%	95%	
CCc1cc(C(F)(C(F)(F)F)C(F)(F)F)cc(C)c1-n1cc(-c2ccc(Cl)c(C(=O)NCC(F)(F)F)c2)cn1 [I-T3-45]	100%	5.0	100%	95%	
N#CC1(NC(=O)c2cc(-c3cnn(-c4c(F)cc(C(F)(F)F)cc4F)c3)ccc2Cl)CC1 [I-T3-49]	100%	3.2	100%	100%	
N#CC1(NC(=O)c2cc(-c3cnn(-c4ncc(C(F)(F)F)cc4Cl)c3)ccc2Cl)CC1 [I-T3-59]	100%	3.1	100%	100%	

SMILES	efficacy (Boophilus microplus)	logP^a) [1]	efficacy (Lucilia cuprina)	efficacy (Ctenocephalides felis)	other results
O=C(NC1CC1)c1cc(-c2cnn(-c3ncc(C(F)(F)F)cc3Cl)c2)ccc1Cl [I-T3-60]	100%	3.2	90%	90%	
CCc1cc(C(F)(C(F)(F)F)C(F)(F)F)cc(C)c1-n1cc(-c2cccc(C(=O)NC3(C#N)CC3)c2F)cn1 [I-T3-69]	100%	4.5	95%	100%	
CCc1cc(C(F)(C(F)(F)F)C(F)(F)F)cc(C)c1-n1cc(-c2cccc(C(=O)NC3CC3)c2F)cn1 [I-T3-70]	100%	4.7	100%	95%	
CCc1cc(C(F)(C(F)(F)F)C(F)(F)F)ccc1-n1cc(-c2cccc(C(=O)NC3(C#N)CC3)c2F)cn1 [I-T3-74]	100%	4.5	90%		
CCc1cc(C(F)(C(F)(F)F)C(F)(F)F)ccc1-n1cc(-c2cccc(C(=O)NC3CC3)c2F)cn1 [I-T3-75]	90%	4.7	80%		
CCc1cc(C(F)(C(F)(F)F)C(F)(F)F)ccc1-n1cc(-c2cncc(C(=O)NC3(C#N)CC3)c2)cn1 [I-T3-78]	100%	3.8	100%	100%	
CCc1cc(C(F)(F)C(F)(F)F)cc(C)c1-n1cc(-c2ccc(Cl)c(C(=O)NCC(F)(F)F)c2)cn1 [I-T3-82]	100%	4.0	100%	95%	
CCc1cc(C(F)(F)C(F)(F)F)cc(C)c1-n1cc(-c2ccc(Cl)c(C(=O)NC3CSC3)c2)cn1 [I-T3-83]	100%	4.6	100%	95%	
Cc1cc(C(F)(C(F)(F)F)C(F)(F)F)cc(C)c1-n1cc(-c2ncc(Cl)c(C(=O)NC3CC3)n2)cn1 [I-T3-121, 5-chloro-N-cyclopropyl-2-[1-[2,6-dimethyl-4-[1,2,2,2-tetrafluoro-1-(trifluoromethyl)ethyl]phenyl]pyrazol-4-yl]pyrimidine-4-carboxamide]					chromatographic logP ([1]; reversed-phase HPLC column (C18), HPLC, reversed-phase C18, acetonitrile/water with formic acid, 55° C., read-out: logP): 4.5; chromatographic logP ([1]; reversed-phase HPLC column (C18), HPLC-MS method a), reversed-phase column (C18); read-out: logP^a)): 4.5; chromatographic logP ([1]; reversed-phase HPLC column (C18), HPLC-MS, reversed-phase column (C18), read-out: log P): 4.5; pest or weed control at 100 ppm (Lucilia cuprina; Lucilia cuprina, 48 h, read-out: efficacy): 80%
O=C(NC1CC1)c1cc(-c2cnn(-c3c(Cl)cc(C(F)(C(F)(F)F)C(F)(F)F)cc3Cl)c2)cnc1N1CCCC1 [I-T3-135]				100%	log P [1, 2]: 4.3
Cc1cc(C(F)(C(F)(F)F)C(F)(F)F)cc(C)c1-n1cc(-c2cnc(C3CC3)c(C(=O)NC3CC3)c2)cn1 [I-T3-140]	100%		100%	100%	log P [1, 2]: 4.2
Cc1cc(C(F)(C(F)(F)F)C(F)(F)F)cc(C)c1-n1cc(-c2cnc(C3CC3)c(C(=O)N(C)C3CC3)c2)cn1 [I-T3-142]	100%				log P [1, 2]: 4.6
Cn1ccc(NC(=O)c2cc(-c3cnn(-c4c(Cl)cc(C(F)(F)F)cc4Cl)c3)cnc2Cl)n1 [I-T3-146]	100%		90%	100%	log P [1, 2]: 2.8
Cc1cc(C(F)(C(F)(F)F)C(F)(F)F)cc(C)c1-n1ccc(-c2ccc(Cl)c(C(=O)NC3(C#N)CC3)c2)c1 [I-T46-1]					logP [1, 3]: 4.90
CN(C(=O)c1cc(-c2ccn(-c3c(Cl)cc(C(F)(C(F)(F)F)C(F)(F)F)cc3Cl)c2)cnc1Cl)C1CC1 [I-T46-3]					logP [1, 3]: 5.0
O=C(NC1CC1)c1cc(-c2ccn(-c3c(Cl)cc(C(F)(C(F)(F)F)C(F)(F)F)cc3Cl)c2)cnc1Cl [I-T46-4]					logP [1, 3]: 4.5
N#CC1(NC(=O)c2cc(-c3ccn(-c4c(Cl)cc(C(F)(C(F)(F)F)C(F)(F)F)cc4Cl)c3)cnc2Cl)CC1 [I-T46-5]					logP [1, 3]: 4.4
CN(C(=O)c1cc(-c2ccn(-c3c(Cl)cc(C(F)(C(F)(F)F)C(F)(F)F)cc3Cl)c2)cnc1Cl)C1(C#N)CC1 [I-T46-6]					logP [1, 3]: 4.8
